Biological target: T1, human B-Raf (Homo sapiens, UniProt P15056)
T1 construct: Flag; GST; made in house; host or cells: Sf9 insect cells (B-Raf); E. coli (MEK1-GST)
Assay: B-Raf Kinase to MEK1 ELISA
Format: biochemical
Settings: for IC50: median, cpd concentrations from 10 μM to 30 nM in half log dilutions, read-out: Median IC50; for inhibition at 10 µM: read-out: % Inhib./10 uM
Outline: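 Read-out is a DELFIA europium signal from phospho-MEK1 (Ser217/221) antibody after capture of GST-MEK1 (50 nM final) on anti-GST plates. Phosphorylation comes from Sf9-expressed Flag/GST human B-Raf (~20 ng) with ATP/MgCl2, 60 min RT, pH 7.2 MOPS.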

T1 sequence (P15056 whole entry): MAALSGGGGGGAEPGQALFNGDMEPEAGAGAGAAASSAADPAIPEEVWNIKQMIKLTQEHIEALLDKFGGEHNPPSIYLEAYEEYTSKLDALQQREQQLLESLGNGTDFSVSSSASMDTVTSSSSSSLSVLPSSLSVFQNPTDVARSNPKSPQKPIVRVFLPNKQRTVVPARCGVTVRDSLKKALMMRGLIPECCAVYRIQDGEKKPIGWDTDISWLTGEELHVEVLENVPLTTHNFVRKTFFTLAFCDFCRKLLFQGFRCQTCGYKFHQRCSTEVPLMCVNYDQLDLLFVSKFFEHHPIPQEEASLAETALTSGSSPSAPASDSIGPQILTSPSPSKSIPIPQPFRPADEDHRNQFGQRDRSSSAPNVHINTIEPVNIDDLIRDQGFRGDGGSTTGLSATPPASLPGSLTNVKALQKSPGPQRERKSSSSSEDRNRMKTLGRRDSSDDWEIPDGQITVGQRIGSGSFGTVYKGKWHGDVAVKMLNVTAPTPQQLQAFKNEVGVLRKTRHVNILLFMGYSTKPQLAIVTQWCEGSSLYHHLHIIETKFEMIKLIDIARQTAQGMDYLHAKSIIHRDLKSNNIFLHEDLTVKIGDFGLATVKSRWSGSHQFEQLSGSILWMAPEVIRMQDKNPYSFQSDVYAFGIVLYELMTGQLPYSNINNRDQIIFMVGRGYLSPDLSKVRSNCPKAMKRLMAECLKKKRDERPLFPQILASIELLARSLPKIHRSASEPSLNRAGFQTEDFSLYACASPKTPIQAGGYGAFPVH

IC50 [µM]	inhibition at 10 µM [%]	Structure (SMILES)
> 10	10	CC(C)(C)CC(=O)Nc1cccc(-c2ccnc3cc(-c4ccncc4)nn23)c1 [Example 240, 3,3-dimethyl-N-[3-(2-pyridin-4-ylpyrazolo[1,5-a]pyrimidin-7-yl)phenyl]butanamide]
> 10	34	O=C(Nc1cccc(-c2ccnc3cc(-c4ccncc4)nn23)c1)c1cc(Cl)ccc1Br [Example 241, 2-bromo-5-chloro-N-[3-(2-pyridin-4-ylpyrazolo[1,5-a]pyrimidin-7-yl)phenyl]benzamide]
> 10	20	CCOC(=O)c1cnn2c(-c3cccc(NC(=O)c4cccc(C)c4)c3)ccnc12 [Example 242, ethyl 7-{3-[(3-methylbenzoyl)amino]phenyl}pyrazolo[1,5-a]pyrimidine-3-carboxylate]
> 10	18	CCOC(=O)c1cnn2c(-c3cccc(NC(=O)c4cc(C(C)(C)C)nn4C)c3)ccnc12 [Example 243, ethyl7-(3-{[(3-tert-butyl-1-methyl-1H-pyrazol-5-yl)carbonyl]amino}phenyl)pyrazolo[1,5-a]pyrimidine-3-carboxylate]
> 10	24	CCOC(=O)c1cnn2c(-c3cccc(NC(=O)Nc4nc5ccc(OC)cc5s4)c3)ccnc12 [Example 244, ethyl7-[3-({[(6-methoxy-1,3-benzothiazol-2-yl)amino]carbonyl}amino)phenyl]pyrazolo[1,5-a]pyrimidine-3-carboxylate]
> 10	18	CCOC(=O)c1cnn2c(-c3cccc(NC(=O)Nc4ccc5c(c4)OCO5)c3)ccnc12 [Example 245, ethyl7-(3-{[(1,3-benzodioxol-5-ylamino)carbonyl]amino}phenyl)pyrazolo[1,5-a]pyrimidine-3-carboxylate]
> 10	34	CCOC(=O)c1cnn2c(-c3cccc(NC(=O)Nc4nc5ccc(Cl)cc5s4)c3)ccnc12 [Example 246, ethyl7-[3-({[(6-chloro-1,3-benzothiazol-2-yl)amino]carbonyl}amino)phenyl]pyrazolo[1,5-a]pyrimidine-3-carboxylate]
> 10	15	CCOC(=O)c1cnn2c(-c3cccc(NC(=O)Nc4cc(C)no4)c3)ccnc12 [Example 247, ethyl7-[3-({[(3-methylisoxazol-5-yl)amino]carbonyl}amino)phenyl]pyrazolo[1,5-a]pyrimidine-3-carboxylate]
> 10	10	CCOC(=O)c1cnn2c(-c3cccc(NC(=O)Nc4cc(C)on4)c3)ccnc12 [Example 248, ethyl7-[3-({[(5-methylisoxazol-3-yl)amino]carbonyl}amino)phenyl]pyrazolo[1,5-a]pyrimidine-3-carboxylate]
0.471	76	O=C1CN(c2cc3nccc(-c4cccc(NC(=O)c5cccc(C(F)(F)F)c5)c4)n3n2)CCN1 [Example 249, N-{3-[2-(3-oxopiperazin-1-yl)pyrazolo[1,5-a]pyrimidin-7-yl]phenyl}-3-(trifluoromethyl)benzamide]
> 10	16	O=C(Nc1cccc(-c2ccnc3cc(O)nn23)c1)c1cccc(C(F)(F)F)c1 [Example 250, N-[3-(2-hydroxypyrazolo[1,5-a]pyrimidin-7-yl)phenyl]-3-(trifluoromethyl)benzamide]
	42	O=C1CCN(c2cc3nccc(-c4cccc(NC(=O)c5cccc(C(F)(F)F)c5)c4)n3n2)CC1 [Example 251, N-{3-[2-(4-oxopiperidin-1-yl)pyrazolo[1,5-a]pyrimidin-7-yl]phenyl}-3-(trifluoromethyl)benzamide]
0.082	79	COCC(=O)Nc1cccc(-c2cnn3c(-c4cccc(NC(=O)c5cccc(C(F)(F)F)c5)c4)ccnc23)c1 [Example 252, N-[3-(3-{3-[(methoxyacetyl)amino]phenyl}pyrazolo[1,5-a]pyrimidin-7-yl)phenyl]-3-(trifluoromethyl)benzamide]

Reference: US20070219186A1, “Pyrazolo[1,5-A]pyrimidine derivatives and methods of use thereof” (priority 2006, published 2007)
